Test results from ChEMBL document CHEMBL1201862, “PubChem BioAssay data set” (2004).
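Each compound was tested at five concentrations against cells in 96-well plates for 48 hours. Abbreviation: GI50, concentration required for 50% inhibition of growth.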 Activity calls are given as the source filed them. No stated cut-off is given here; in the data, active = GI50 up to about 1.1 µM and inactive = higher.

Legend:
Assay in all cases: growth of human tumour cells (NCI), 48 h
ACHN = test system: ACHN
BT-549 = test system: BT-549
CAKI-1 = test system: CAKI-1
CCRF-CEM = test system: CCRF-CEM
HCT-116 = test system: HCT-116
HCT-15 = test system: HCT-15
HL-60 = test system: HL-60
HOP-92 = test system: HOP-92
Hs-578T = test system: Hs-578T
M14 = test system: M14
MCF7 = test system: MCF7
MDA-MB-231 = test system: MDA-MB-231
NCI-H226 = test system: NCI-H226
NCI-H23 = test system: NCI-H23
NCI-H522 = test system: NCI-H522
OVCAR-5 = test system: OVCAR-5
PC-3 = test system: PC-3
SK-MEL-28 = test system: SK-MEL-28
TK-10 = test system: TK-10
A549 = test system: A549

Compound | GI50 (ACHN) | GI50 (BT-549) | GI50 (CAKI-1) | GI50 (CCRF-CEM) | GI50 (HCT-116) | GI50 (HCT-15) [µM] | GI50 (HL-60) | GI50 (HOP-92) | GI50 (Hs-578T) | GI50 (M14) | GI50 (MCF7) | GI50 (MDA-MB-231) | GI50 (NCI-H226) | GI50 (NCI-H23) | GI50 (NCI-H522) | GI50 (OVCAR-5) | GI50 (PC-3) | GI50 (SK-MEL-28) | GI50 (TK-10) | GI50 (A549)
C[N+](C)(C)c1ccc(C(N)C(=O)O)cc1 (centres undefined) | > 100 µM (inactive) | > 100 µM (inactive) | > 100 µM (inactive) | > 100 µM (inactive) | > 100 µM (inactive) | > 100 | 43.7 µM (inactive) | > 100 µM (inactive) | > 100 µM (inactive) | > 100 µM (inactive) | > 100 µM (inactive) | > 100 µM (inactive) | > 100 µM (inactive) | > 100 µM (inactive) | > 100 µM (inactive) | > 100 µM (inactive) | > 100 µM (inactive) | > 100 µM (inactive) | > 100 µM (inactive) | 
COC(=O)C1=C(C)C(=O)[C@]23C(CCCC[C@H]12)C(=O)[C@H](C(=O)OC)C3C (some centres undefined) | > 100 µM (inactive) | > 100 µM (inactive) | > 100 µM (inactive) | > 100 µM (inactive) | > 100 µM (inactive) | > 100 | > 100 µM (inactive) | > 100 µM (inactive) | > 100 µM (inactive) | > 100 µM (inactive) | > 100 µM (inactive) | > 100 µM (inactive) | > 100 µM (inactive) | > 100 µM (inactive) | > 100 µM (inactive) | > 100 µM (inactive) | > 100 µM (inactive) | > 100 µM (inactive) | > 100 µM (inactive) | > 100 µM (inactive)
CC(=O)Oc1c(C)c2c(c3ncccc13)OC(C)C2 (centres undefined) | 11.8 µM (inactive) | 21.1 µM (inactive) | 14.6 µM (inactive) | 6.37 µM (inactive) | 14.9 µM (inactive) | 12.1 | 7.4 µM (inactive) | 14.7 µM (inactive) | 22.2 µM (inactive) | 15.2 µM (inactive) | 13.3 µM (inactive) | 11.5 µM (inactive) | 16.4 µM (inactive) | 17.3 µM (inactive) | 4.29 µM (inactive) | 17.2 µM (inactive) | 26 µM (inactive) | 13.9 µM (inactive) | 22 µM (inactive) | 13.4 µM (inactive)
CC1Oc2cc3c(-c4c(O)cc(O)c5c(O)c6c(cc45)OC(C)C(C)C6=O)c(O)cc(O)c3c(O)c2C(=O)C1C (centres undefined) | 0.183 µM (active) | 0.0605 µM (active) | 0.231 µM (active) | 0.0279 µM (active) | 0.0378 µM (active) | 0.0474 | 0.24 µM (active) | 0.184 µM (active) | 0.0439 µM (active) | 0.226 µM (active) | 0.147 µM (active) | 0.0925 µM (active) | 0.0871 µM (active) | 0.122 µM (active) | 0.343 µM (active) | 0.55 µM (active) | 0.0546 µM (active) | 0.698 µM (active) | 0.27 µM (active) | 0.0252 µM (active)
Cc1nc(O)nc2nc3ccc(Cl)cc3c(NCCNCCO)c12 | 14.3 µM (inactive) | 16.7 µM (inactive) | 12.2 µM (inactive) | 9.27 µM (inactive) | 5.85 µM (inactive) | 17.9 | 90.4 µM (inactive) | 11.4 µM (inactive) | 13.5 µM (inactive) | 12.1 µM (inactive) | 13.6 µM (inactive) | 11.7 µM (inactive) | 13.1 µM (inactive) | 8.77 µM (inactive) | 3.21 µM (inactive) | 13.2 µM (inactive) | 13.7 µM (inactive) | 17.5 µM (inactive) | 18.7 µM (inactive) | 17.4 µM (inactive)
NCCP(=O)(O)O | > 100 µM (inactive) | > 100 µM (inactive) | > 100 µM (inactive) | > 100 µM (inactive) | > 100 µM (inactive) | > 100 | > 100 µM (inactive) | > 100 µM (inactive) | > 100 µM (inactive) | > 100 µM (inactive) | > 100 µM (inactive) | > 100 µM (inactive) | > 100 µM (inactive) | > 100 µM (inactive) | > 100 µM (inactive) | > 100 µM (inactive) | > 100 µM (inactive) | > 100 µM (inactive) | > 100 µM (inactive) | > 100 µM (inactive)
COc1ccccc1C1ON=C(c2ccc([N+](=O)[O-])cc2)N1C12CC3CC(CC(C3)C1)C2 (centres undefined) | > 100 µM (inactive) | > 100 µM (inactive) | > 100 µM (inactive) | 28.7 µM (inactive) | 47.5 µM (inactive) | 91.6 | 4.35 µM (inactive) | 29.2 µM (inactive) | 37.9 µM (inactive) | 84.3 µM (inactive) | 47.9 µM (inactive) | > 100 µM (inactive) | > 100 µM (inactive) | > 100 µM (inactive) | 73.8 µM (inactive) | 44.7 µM (inactive) | 33 µM (inactive) | > 100 µM (inactive) | > 100 µM (inactive) | 94 µM (inactive)
COC(=O)/C(C#N)=C/c1cc(C(C)(C)C)c(O)c(C(C)(C)C)c1 | 2.77 µM (inactive) | 2.77 µM (inactive) | 2.89 µM (inactive) | 1.9 µM (inactive) | 2.66 µM (inactive) | 2.67 | 1.88 µM (inactive) | 0.662 µM (active) | 3.55 µM (inactive) | 3.12 µM (inactive) | 2.66 µM (inactive) | 1.63 µM (inactive) | 1.96 µM (inactive) | 1.42 µM (inactive) | 0.984 µM (active) | 2.54 µM (inactive) | 2.11 µM (inactive) | 2.62 µM (inactive) | 3.24 µM (inactive) | 2.64 µM (inactive)
C=CC[C@H](N=C(SC)SC)C(=O)N1C(=O)N(C)[C@@H](C)[C@H]1c1ccccc1 | 49.4 µM (inactive) | 34.6 µM (inactive) | 25.1 µM (inactive) | 22.3 µM (inactive) | 33 µM (inactive) | 49.8 | 34 µM (inactive) | 23.3 µM (inactive) | 21.3 µM (inactive) | 34.9 µM (inactive) | 34.8 µM (inactive) | > 100 µM (inactive) | 31.6 µM (inactive) | 39.3 µM (inactive) | 14.9 µM (inactive) | 54.6 µM (inactive) | 33.7 µM (inactive) | 39.5 µM (inactive) | 44.2 µM (inactive) | 35.3 µM (inactive)
Nc1ccc(Oc2ccc(C34CC5CC(C3)CC(c3ccc(Oc6ccc(N)c(O)c6)cc3)(C5)C4)cc2)cc1O | 1.72 µM (inactive) | 0.993 µM (active) | 1.93 µM (inactive) |  | 1.39 µM (inactive) | 1.77 | 2.12 µM (inactive) | 1.98 µM (inactive) | 2.02 µM (inactive) | 1.63 µM (inactive) | 2.49 µM (inactive) | 1.57 µM (inactive) | 3.1 µM (inactive) | 1.79 µM (inactive) | 1.54 µM (inactive) | 2.05 µM (inactive) | 1.75 µM (inactive) | 2.48 µM (inactive) | 3.3 µM (inactive) | 1.64 µM (inactive)
Cn1c(=O)c2c(O)cc(N)nc2n(C)c1=O | > 100 µM (inactive) | > 100 µM (inactive) | 28.9 µM (inactive) | > 100 µM (inactive) | > 100 µM (inactive) |  | > 100 µM (inactive) | 67.3 µM (inactive) | > 100 µM (inactive) | > 100 µM (inactive) | > 100 µM (inactive) | > 100 µM (inactive) | > 100 µM (inactive) | > 100 µM (inactive) | > 100 µM (inactive) | > 100 µM (inactive) | > 100 µM (inactive) | > 100 µM (inactive) | > 100 µM (inactive) | > 100 µM (inactive)
O=C1C=C(NCCc2ccc(O)cc2)C(=O)C=C1NCCc1ccc(O)cc1 | > 100 µM (inactive) | > 100 µM (inactive) | > 100 µM (inactive) | 46.9 µM (inactive) | 50 µM (inactive) | > 100 | 19.2 µM (inactive) | 71.1 µM (inactive) | 85.3 µM (inactive) |  | > 100 µM (inactive) | 47.1 µM (inactive) | > 100 µM (inactive) | > 100 µM (inactive) | > 100 µM (inactive) | > 100 µM (inactive) | > 100 µM (inactive) | > 100 µM (inactive) | > 100 µM (inactive) | > 100 µM (inactive)
CN(C)C[C@H]1CC[C@@H](CN(C)C)C1=O | 8.32 µM (inactive) | 7.46 µM (inactive) | 8.79 µM (inactive) |  | 8.32 µM (inactive) | 4.65 | 1.29 µM (inactive) | 8.47 µM (inactive) | 18.7 µM (inactive) | 8.77 µM (inactive) | 1.18 µM (inactive) | 9.86 µM (inactive) | 13.1 µM (inactive) | 9.4 µM (inactive) | 0.453 µM (active) | 8.79 µM (inactive) | 8.63 µM (inactive) | 5.15 µM (inactive) | 8.11 µM (inactive) | > 50 µM (inactive)
COc1ccc(-c2cc(-c3ccc(C)cc3)n(C3OC(COC(C)=O)C(OC(C)=O)C(OC(C)=O)C3OC(C)=O)c(=S)c2C#N)cc1 (centres undefined) | > 100 µM (inactive) | > 100 µM (inactive) | > 100 µM (inactive) |  | > 100 µM (inactive) | > 100 | 49.3 µM (inactive) | > 100 µM (inactive) | 36.6 µM (inactive) | > 100 µM (inactive) | > 100 µM (inactive) | > 100 µM (inactive) | > 100 µM (inactive) | > 100 µM (inactive) | > 100 µM (inactive) | > 100 µM (inactive) | > 100 µM (inactive) | > 100 µM (inactive) | > 100 µM (inactive) | > 100 µM (inactive)
